Experiments:
[1] = tested on: dextran sodium sulfate (DSS)-induced colitis; assay: Dextran sodium sulfate (DSS)-induced colitis model, disease activity index (DAI); format: in vivo, mice (C57Bl/6NHsd); conditions: for anti-IBD activity: disease activity index (DAI): once daily oral
Method: Colitis was induced using either 2.5% DSS (FIG. 1A, FIG. 1B, and FIG. 1C) or 4.0% DSS (FIG. 1D, FIG. 1E, FIG. 1F, FIG. 1G, and FIG. 1H) resulting in the characteristic development of diarrhea, rectal bleeding and body weight loss. These parameters were evaluated daily, scored and summated to compute a disease activity index (DAI). Mice received once daily oral treatment with test article or vehicle beginning on Study Day 0 and continuing through Study Day 7. […] All data depicted as mean+/−SEM. 2-way ANOVA, *p<0.05, **p<0.01, ***p<0.001;
Colitis was induced using 4.0% DSS resulting in the characteristic development of diarrhea, rectal bleeding and body weight loss. These parameters were evaluated daily, scored and summated to compute a disease activity index (DAI). Mice received once daily oral treatment with test article or vehicle beginning on Study Day 0 and continuing through Study Day 6. […] All data depicted as mean+/−SEM. 2-way ANOVA, *p<0.05, **p<0.01, ***p<0.001;
(§1) Six-week old male C57Bl/6NHsd mice were challenged with 4.0% DSS in drinking water from Study Day 0-5 followed by exposure to freshwater, inducing severe acute colitis. Oral (S)-LTP592 was administered once daily beginning on study day 0 at 1 mg/kg, 10 mg/kg and 100 mg/kg 2-PMPA molar equivalent doses. (FIG. 4A) 100 mg/kg eq. […] (S)-LTP592, while GCPII was only 40% inhibited at the non-efficacious dose of 1 mg/kg eq. (n=8/group; **p<0.01 2-tailed t-test). (FIG. 4C) Strikingly, 100 mg/kg eq. […] (FIG. 4D, FIG. 4E, and FIG. 4F) Efficacy of 100 mg/kg eq. (S)-LTP592 in the DSS-colitis model was driven by improvements in (FIG. 4C) stool score and (FIG. 4D) bleeding score (n=15/group; ***p<0.001, *p<0.05 2-way ANOVA);
(§2) Six-week old male C57Bl/6NHsd mice were challenged with 4.0% DSS in drinking water from study day 0-6 followed by exposure to freshwater. Oral (S)-LTP592 was administered once daily beginning on study day 0 at 100 mg/kg 2-PMPA molar equivalent doses. (FIG. 5A, FIG. 5B, and FIG. 5C) 100 mg/kg eq. […] (FIG. 5D, FIG. 5E, FIG. 5F, and FIG. 5G) A subset of mice (n=8/group) were euthanized on study day 5, prior to fulminant colitis. Their colons were harvested and processed for flow cytometry. […] All DSS-induced changes in myeloid inflammatory cell populations were attenuated by (S)-IBD3540 treatment (n=8-9/group, **p<0.01, *p<0.05, 2-tailed t-test).
Six- to eight-week-old male C57BM6NHsd mice were acquired from Harlan Laboratories/Envigo (Indianapolis, IN). Animals were housed in the Johns Hopkins animal facility under controlled temperature (25° C.) and photoperiod (12-hour-light/12-hour-dark cycle) with access to standard diet and water (or specified DSS-containing drinking water) ad libitum. All animal studies were approved by the Animal Care and Use Committee of Johns Hopkins University, Baltimore, MD and adhered to all of the applicable institutional and governmental guidelines for the humane treatment of laboratory animals. Mice were housed 4-5 per cage and allowed to acclimate to their environment for at least 5 days before inclusion in experiments. Mice (n=5-30/group) were randomized by body weight into equivalent experimental groups: (a) DSS with vehicle or (b) DSS with test article. Acute colitis was induced by administration of 2.5%-4.0% (w/v) DSS (MW 40,000-50,000; Affymetrix Santa Clara, CA) in the drinking water for 5 days, followed by exposure to freshwater for two days. Daily oral (PO) dosing of vehicle or test article was initiated on study day 0 and was continued until sacrifice on study day 7. […]

recombinant human GCPII = recombinant human GCPII (Homo sapiens, UniProt Q04609); assay: GCPII inhibition, radiosubstrate based assay; format: biochemical; conditions: GCPII IC50 ratio, (S)- vs (R)-enantiomer
Method: FIG. 3A, FIG. 3B, FIG. 3C, and FIG. 3D show IC50 values for selected bile acid GCPII inhibitor conjugates. IC50s were determined for selected inhibitors using a previously described radiosubstrate based assay employing recombinant human GCPII. Rojas et al., 2002.
Glutamate Carboxypeptidase II (GCPII) is a metallopeptidase that catalyzes the hydrolysis of N-acetylated aspartate-glutamate (NAAG) to N-acetyl aspartate (NAA) and glutamate and cleaves terminal glutamate moieties sequentially from folate polyglutamate (Ristau et al., 2013; Mesters et al, 2006; Slusher et al, 2013). In certain embodiments, the presently disclosed compounds of formula (I) are GCPII inhibitors. As used herein, a GCPII inhibitor is a molecule that decreases or inhibits the activity of GCPII. The modulation of the activity of GCPII may be detected by use of an assay for the intrinsic N-acetylated alpha-linked acidic dipeptidase (AALADase) activity of GCPII (Tang et al, 2003; Robinson et al 1987: Lupoid et al., 2002; U.S. Patent App. Pub. No. 20110064657). Inhibition curves may be determined using semi-log plots and IC50 values determined at the concentration at which enzyme activity was inhibited by 50%.

GCPII = target: T1, GCPII (Mus musculus, UniProt O35409); assay: GCPII enzymatic activity in murine colon tissue (radioenzymatic assay); format: in vivo, mice; conditions: colon collected 4-hour post dose on study day 6
T1 construct: from tissue; host or cells: mouse proximal colon
Method: as §1
A 5-mm length location-matched segment of proximal colon was harvested and flash-frozen following euthanasia on study day 6 of DSS-induced colitis, 4-hours after the final dose with vehicle or compound. Glutamate carboxypeptidase activity was measured using a radioenzymatic assay that was optimized and described previously. Rojas et al., 2002; Robinson et al., 1987.

[2] = tested on: myeloid inflammatory cell populations in colon; assay: Flow cytometry of colonic lamina propria mononuclear cells in DSS colitis; format: in vivo, mice; conditions: 4.0% DSS, 100 mg/kg eq. oral, study day 5
Method: as §2
On DSS study day 5, a subset of mice (n=8-9/group) were euthanized and colons were processed for flow cytometry. Specifically, the distal 3 cm of colon was separated, mesenteric fat dissected away and intestinal contents removed. Then colon was transected longitudinally, washed with PBS, and minced thoroughly. Minced colon tissues were transferred into 5 ml HBSS with 10 mM HEPES containing 5% FBS and 0.2 mg/ml collagenase D (Sigma). Tissues were digested at 37° C. for 20 min with constant agitation (250 r.p.m.), then vigorously vortexed for 20 s. The resulting cell suspension containing LPMCs was filtered through a 70-μm nylon cell strainer and washed with 10 ml PBS. […]

[3] = 2.5% or 4.0% DSS, Study Day 0-7, 10 to 100 mg/kg 2-PMPA molar equivalent dose, DAI on Study Days 6 and 7
[4] = 4.0% DSS, 100 mg/kg eq. oral, study day 6
[5] = 4.0% DSS, Study Day 0-6, DAI on Study Days 4 through 6

T1 sequence (O35409 whole entry): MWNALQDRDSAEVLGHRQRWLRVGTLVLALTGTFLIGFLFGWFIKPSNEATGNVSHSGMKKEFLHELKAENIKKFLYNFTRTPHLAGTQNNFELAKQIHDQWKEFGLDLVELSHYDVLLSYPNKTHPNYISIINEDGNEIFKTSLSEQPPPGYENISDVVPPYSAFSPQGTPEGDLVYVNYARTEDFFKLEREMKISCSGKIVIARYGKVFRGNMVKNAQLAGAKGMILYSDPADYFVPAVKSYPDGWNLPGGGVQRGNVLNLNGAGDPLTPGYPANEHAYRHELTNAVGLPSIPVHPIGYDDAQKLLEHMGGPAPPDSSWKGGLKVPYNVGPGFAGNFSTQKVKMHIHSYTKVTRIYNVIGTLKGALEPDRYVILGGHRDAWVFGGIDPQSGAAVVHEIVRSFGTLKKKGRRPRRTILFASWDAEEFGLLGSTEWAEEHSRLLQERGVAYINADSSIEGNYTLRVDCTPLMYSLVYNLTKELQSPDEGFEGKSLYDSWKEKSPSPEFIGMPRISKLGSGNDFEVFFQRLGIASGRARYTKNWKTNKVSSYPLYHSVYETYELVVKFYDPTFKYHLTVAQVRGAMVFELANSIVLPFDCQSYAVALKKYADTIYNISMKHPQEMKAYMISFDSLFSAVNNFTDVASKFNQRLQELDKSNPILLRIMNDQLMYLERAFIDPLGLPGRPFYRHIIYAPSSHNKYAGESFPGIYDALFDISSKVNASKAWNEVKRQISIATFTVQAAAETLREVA
Chain of recombinant human GCPII (Q04609 whole entry): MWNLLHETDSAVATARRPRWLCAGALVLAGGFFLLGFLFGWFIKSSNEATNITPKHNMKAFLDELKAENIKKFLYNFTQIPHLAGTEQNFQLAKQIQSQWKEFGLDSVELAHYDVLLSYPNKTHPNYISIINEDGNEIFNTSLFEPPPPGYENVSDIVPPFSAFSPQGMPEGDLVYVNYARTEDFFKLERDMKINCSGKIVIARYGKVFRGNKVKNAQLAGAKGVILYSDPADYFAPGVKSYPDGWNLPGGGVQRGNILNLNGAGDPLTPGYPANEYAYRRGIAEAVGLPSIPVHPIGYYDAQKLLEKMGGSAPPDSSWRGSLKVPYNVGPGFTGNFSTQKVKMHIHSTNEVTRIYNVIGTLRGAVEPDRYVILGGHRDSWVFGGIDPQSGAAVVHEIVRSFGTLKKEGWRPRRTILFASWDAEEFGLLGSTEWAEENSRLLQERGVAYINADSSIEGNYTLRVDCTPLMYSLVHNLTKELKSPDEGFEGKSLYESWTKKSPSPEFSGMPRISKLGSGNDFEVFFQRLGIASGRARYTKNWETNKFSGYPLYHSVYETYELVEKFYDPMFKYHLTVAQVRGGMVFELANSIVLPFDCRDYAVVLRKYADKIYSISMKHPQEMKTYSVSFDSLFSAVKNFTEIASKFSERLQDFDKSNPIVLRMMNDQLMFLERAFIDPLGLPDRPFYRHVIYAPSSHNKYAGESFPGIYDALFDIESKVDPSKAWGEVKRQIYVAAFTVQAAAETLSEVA

C[C@H](CCC(=O)OCOC(=O)CCC(CP(=O)(O)O)C(=O)O)C1CCC2C3CC[C@@H]4C[C@H](O)CC[C@]4(C)C3CC[C@@]21C (mixture of isomers) [LTP582, 5-((((4R)-4-((3R,10S,13R)-3-Hydroxy-10,13-dimethylhexadecahydro-1H-cyclopenta[a]phenanthren-17-yl)pentanoyl)oxy)methoxy)-5-oxo-2-(phosphonomethyl)pentanoic acid]
anti-IBD activity: disease activity index (DAI) [1, 3]: inactive

C[C@H](CCC(=O)OCOC(=O)CCC(CP(=O)(O)O)C(=O)O)C1CCC2C3C(C[C@H](O)[C@@]21C)[C@@]1(C)CC[C@@H](O)C[C@H]1C[C@H]3O (mixture of isomers) [LTP588, 5-Oxo-2-(phosphonomethyl)-5-((((4R)-4-((3R,7R,10S,12S,13R)-3,7,12-trihydroxy-10,13-dimethylhexadecahydro-1H-cyclopenta[a]phenanthren-17-yl)pentanoyl)oxy)methoxy) pentanoic acid]
anti-IBD activity: disease activity index (DAI) [1, 3]: inactive

C[C@H](CCC(=O)OCOC(=O)CC[C@H](CP(=O)(O)O)C(=O)O)C1CCC2C3CC[C@@H]4C[C@H](O)CC[C@]4(C)C3C[C@H](O)[C@@]21C (stereo partly drawn) [(S)-LTP592]
potency relative to (R)-LTP592 (recombinant human GCPII): 150 fold | inhibition of GCPII enzymatic activity in colon tissue (GCPII; 1 mg/kg eq. oral): 40% | inhibition of GCPII enzymatic activity in colon tissue (GCPII; 10 mg/kg eq. oral): > 75% | inhibition of GCPII enzymatic activity in colon tissue (GCPII; 100 mg/kg eq. oral): > 75% | DSS-induced changes in myeloid inflammatory cell populations (CD11b+ white blood cells, neutrophils, monocytes, transitioning monocytes) [2]: attenuated | bleeding score ([1]; 4.0% DSS, 100 mg/kg eq. oral): improvements | stool score ([1]; 4.0% DSS, 100 mg/kg eq. oral): improvements | colon histology (scored by a blinded pathologist) [1, 4]: significantly improved | colon length [1, 4]: normalization of colon length | number and depth of ulcerations and degree of inflammatory infiltration [1, 4]: reduced | efficacy in DSS colitis ([1]; 4.0% DSS, oral once daily, 1 mg/kg eq.): non-efficacious | efficacy in DSS colitis ([1]; 4.0% DSS, oral once daily, 10 mg/kg eq.): effective | colitis severity (DAI) ([1]; 4.0% DSS, oral once daily, 100 mg/kg eq., as early as study day 3): significantly decreased

C[C@H](CCNC(=O)CCC(CP(=O)(O)O)C(=O)O)[C@H]1CCC2C3C(CC[C@@]21C)[C@@]1(C)CC[C@@H](O)C[C@H]1C[C@@H]3O (stereo partly drawn) [IS-101-020, 5-(((3R)-3-((3R,7S,10S,13R,17R)-3,7-Dihydroxy-10,13-dimethylhexadecahydro-1H-cyclopenta[a]phenanthren-17-yl)butyl)amino)-5-oxo-2-(phosphonomethyl)pentanoic acid]
anti-IBD activity: disease activity index (DAI) [1, 3]: significant reductions in DAI

C[C@H](CCNC(=O)CCC(CP(=O)(O)O)C(=O)O)[C@H]1CCC2C3CC[C@@H]4C[C@H](O)CC[C@]4(C)C3C[C@H](O)[C@@]21C (stereo partly drawn) [IS-101-077, 5-(((3R)-3-((3R,10S,12S,13R,17R)-3,12-Dihydroxy-10,13-dimethylhexadecahydro-1H-cyclopenta[a]phenanthren-17-yl)butyl)amino)-5-oxo-2-(phosphonomethyl)pentanoic acid]
anti-IBD activity: disease activity index (DAI) [1, 3]: significant reductions in DAI

CC(C)C[C@H](NC(=O)N[C@@H](CCC(=O)OCOC(=O)CC[C@@H](C)[C@H]1CCC2C3CC[C@@H]4C[C@H](O)CC[C@]4(C)C3C[C@H](O)[C@@]21C)C(=O)O)C(=O)O (stereo partly drawn) [IS-102-138, (2S,6S,16R)-6-Carboxy-16-((3R,10S,12S,13R,17R)-3,12-dihydroxy-10,13-dimethylhexadecahydro-1H-cyclopenta[a]phenanthren-17-yl)-2-isobutyl-4,9,13-trioxo-10,12-dioxa-3,5-diazaheptadecanoic acid]
anti-IBD activity: disease activity index (DAI) [1, 5]: significant reductions in DAI

C[C@H](CCC(=O)OCOC(=O)CCC(CP(=O)(O)O)C(=O)O)C1CCC2C3C(CC[C@@]21C)[C@@]1(C)CC[C@@H](O)C[C@H]1C[C@@H]3O (stereo partly drawn) [LTP1054, 5-((((4R)-4-((3R,7S,12S,13R)-3,12-Dihydroxy-10,13-dimethylhexadecahydro-1H-cyclopenta[a]phenanthren-17-yl)pentanoyl)oxy)methoxy)-5-oxo-2-(phosphonomethyl) pentanoic acid]
anti-IBD activity: disease activity index (DAI) [1, 3]: inactive

C[C@H](CCC(=O)OCOC(=O)c1ccc(CC(CCC(=O)NO)C(=O)O)cc1)C1CCC2C3CC[C@@H]4C[C@H](O)CC[C@]4(C)C3C[C@H](O)[C@@]21C (some centres unmarked) [TT-220420]
anti-IBD activity: disease activity index (DAI) [1, 5]: significant reductions in DAI

— US12698306B2, “Bile acid-GCPII inhibitor conjugates to treat inflammatory diseases, including inflammatory bowel disease (IBD)” (The Johns Hopkins University, priority 2020, dated 2026)
